Experiments:
[1] = tested on: T1, TREK subfamily channels (TREK-1, TREK-2 and TRAAK); test: whole-cell perforated patch clamp, outward current in native neurons; assay type: cell-based, Mus musculus; conditions: activator, unreliable (extrapolated), holding -30 mV, blocker cocktail, room temperature
T1 construct: gene Kcnk2; native channels in cultured nodose ganglion neurons; the authors argue mainly TREK-1, subtype not proven

[2] = molecular target: T2, human TRESK (KCNK18) (Homo sapiens, UniProt Q7Z418); test: whole-cell patch clamp, current at -40 mV; assay type: cell-based
T2 construct: full-length cDNA in pcDNA3.1, co-transfected with separate GFP cDNA in tsA201 cells
T2 sequence (Q7Z418 1-384): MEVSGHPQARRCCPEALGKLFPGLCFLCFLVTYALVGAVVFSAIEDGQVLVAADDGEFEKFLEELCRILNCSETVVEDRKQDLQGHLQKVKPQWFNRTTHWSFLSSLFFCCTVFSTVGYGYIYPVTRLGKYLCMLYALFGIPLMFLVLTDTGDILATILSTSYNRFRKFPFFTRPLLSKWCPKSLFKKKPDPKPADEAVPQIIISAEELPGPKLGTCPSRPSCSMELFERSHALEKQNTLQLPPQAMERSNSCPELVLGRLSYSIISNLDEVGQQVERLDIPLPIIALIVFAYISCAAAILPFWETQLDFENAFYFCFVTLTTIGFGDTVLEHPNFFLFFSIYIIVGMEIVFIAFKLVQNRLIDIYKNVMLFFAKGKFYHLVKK

Structure (SMILES): Nc1nc2ccc(OC(F)(F)F)cc2s1 [riluzole]
- EC50 [1]: 392.2 ± 182.8 µM
- inhibition at 100 µM [2]: 64%

— publication PMC6013220, “Activation of TREK currents by riluzole in three subgroups of cultured mouse nodose ganglion neurons” (PLoS ONE, 2018)
